Reference: patent US12053506B2, “Romo1-derived antimicrobial peptides and variants thereof” (priority 2019, dated 2024)
Converted amounts (≈) assume the structure as drawn. Read-outs that look alike come from different tables or passages of the source. Non-standard residues stand in square brackets, D forms with d. Residues, ends and D or L forms follow the SMILES beside them. No end group written: not given here.

B1: MPVAVGPYGQSQPSCFDRVKMGFVMGCAVGMAAGALFGTFSCLRIGMRGRELMGGIGKTMMQSGGTFGTFMAIGMGIRC (protein)
chain: MPVAVGPYGQSQPSCFDRVKMGFVMGCAVGMAAGALFGTFSCLRIGMRGRELMGGIGKTMMQSGGTFGTFMAIGMGIRC
modifications: Homo sapiens Romo1

Columns and labels:
[1] = test system: Pseudomonas aeruginosa (ATCC 27853); type: cell-based; conditions: for MBC Pseudomonas aeruginosa: Tables 11-15, no unit printed
Text: (§1) Romo1 protein comprises two α-helices. The present inventors synthesized the α-helix 2 region having both hydrophilicity and hydrophobicity, and evaluated the antibacterial activity thereof using minimum bactericidal concentration (MBC) assay. The α-helix 2 region was named KU-5279 (the 52-79 amino acid region of Romo1 protein). Then, in order to identify peptides that are beneficial for human application and have excellent antibacterial activity, the present inventors synthesized several peptides comprising a sequence of contiguous amino acids starting at any amino acid selected from the 52-79 amino acid region of Romo1 protein, and comparatively evaluated the antibacterial activities of the peptides by minimum bactericidal concentration assay (See Table 1 below for information on each peptide). Evaluation of the antibacterial activity of each peptide by minimum bactericidal concentration assay was specifically performed as follows. First, each of Pseudomonas aeruginosa (ATCC 27853) and Staphylococcus aureus (ATCC 29213) was cultured in 3% (w/v) TSB (Tryptic Soy Broth) liquid medium at 37° C. and 200 rpm for 4 hours, and then further cultured under the same conditions for 3 hours to a concentration of 5×10^6 CFU/ml. Strain solutions were prepared by diluting each of the further cultured strains with SP (sodium phosphate; 10 mM sodium phosphate, 1% TSB) buffer to a final concentration of 2×10^5 CFU/ml. Then, each peptide at varying concentrations (0 μg/ml to 300 μg/ml) was dispensed into each well of a 96-well microplate, and 100 μl (1×10^5 CFU/ml) of each of the prepared strain solutions was added thereto, mixed therewith, and allowed to react with the peptide in an incubator at 37° C. for 1 hour. In addition, 30 g/L of TS (tryptic soy) and 15 g/L of agar were dissolved in distilled water and sterilized, and then 25 ml of the solution was poured onto a 100 mm round plate and solidified at room temperature for one day or more, thereby preparing a TS agar plate. 10 μl of each reaction solution of the peptide and the strain was plated on the TS agar plate at a constant size, and incubated in an incubator at 37° C. for 18 hours, and then colony formation on the plate was checked. The minimum bactericidal concentration was defined as the minimum concentration of the peptide at which no colony was formed, and the experimental results are shown in Table 1 below.

[2] = test system: Staphylococcus aureus (ATCC 29213); type: cell-based; conditions: for MBC Staphylococcus aureus: Tables 11-15, no unit printed
Text: as §1

[3] = test system: methicillin-resistant Staphylococcus aureus (ATCC 33591); conditions: Tables 11-15, no unit printed
Description: First, each of Pseudomonas aeruginosa (ATCC 27853) and Staphylococcus aureus (ATCC 29213) was cultured in 3% (w/v) TSB (Tryptic Soy Broth) liquid medium at 37° C. and 200 rpm for 4 hours, and then further cultured under the same conditions for 3 hours to a concentration of 5×10^6 CFU/ml. Strain solutions were prepared by diluting each of the further cultured strains with SP (sodium phosphate; 10 mM sodium phosphate, 1% TSB) buffer to a final concentration of 2×10^5 CFU/ml.
Then, each peptide at varying concentrations (0 μg/ml to 300 μg/ml) was dispensed into each well of a 96-well microplate, and 100 μl (1×10^5 CFU/ml) of each of the prepared strain solutions was added thereto, mixed therewith, and allowed to react with the peptide in an incubator at 37° C. for 1 hour.
In addition, 30 g/L of TS (tryptic soy) and 15 g/L of agar were dissolved in distilled water and sterilized, and then 25 ml of the solution was poured onto a 100 mm round plate and solidified at room temperature for one day or more, thereby preparing a TS agar plate. 10 μl of each reaction solution of the peptide and the strain was plated on the TS agar plate at a constant size, and incubated in an incubator at 37° C. for 18 hours, and then colony formation on the plate was checked.
Specifically, each type of bacteria was cultured in 3% (w/v) TSB (Tryptic Soy Broth) liquid medium at 37° C. and 200 rpm for 4 hours, and then further cultured under the same conditions for 3 hours to a concentration of 5×10^6 CFU/ml. Strain solutions were prepared by diluting each of the […] of 2×10^5 CFU/ml.
Then, the KU-5878 peptide at varying concentrations (0 μg/ml to 300 μg/ml) was dispensed into each well of a 96-well microplate, and 100 μl (1×10^5 CFU/ml) of each of the prepared strain solutions was added thereto, mixed therewith, and allowed to react with the peptide in an incubator at 37° C. for 1 hour.
In addition, 10 μl of each reaction solution of the peptide and the strain was plated on the TS agar plate at a constant size, and incubated in an incubator at 37° C. for 18 hours, and then colony formation on the plate was checked.

CRPA = assay: MBC, evaluation of antibacterial activities of KU-5878 variants; type: cell-based; conditions: Tables 11-15, no unit printed
Description: Variants were prepared by deleting one amino acid from the amino acid sequence of KU-5878 (SEQ ID NO: 13), and the antibacterial activities thereof were evaluated.
Variants were prepared by deleting two or more amino acids from the amino acid sequence of KU-5878 (SEQ ID NO: 13), and the antibacterial activities thereof were evaluated.
One amino acid in the amino acid sequence of KU-5878 (SEQ ID NO: 13) was substituted, and the antibacterial activities of the peptides were evaluated.
Substitutions of Q62K, S63K and T66K were sequentially added to the amino acid sequence of KU-5878-T59K, and the antibacterial activities of the peptides were evaluated.
An amino acid repeat sequence was added to the C-terminus of KU-5878, and the antibacterial activities of the peptides were evaluated. According to Table 15 below, when the R (arginine) repeat sequence or K (lysine) sequence was added to the C-terminus of KU-5878, the antibacterial activity of the peptide increased.

| Molecule | MBC Pseudomonas aeruginosa [1] [µg/mL] | MBC Staphylococcus aureus [2] [µg/mL] | MBC MRSA [3] [µg/mL] | MBC CRPA (CRPA) [µg/mL] | MBC value (μg/ml) against Pseudomonas aeruginosa ([1]; ATCC 27853, 1 h) [µg/mL] | MBC value (μg/ml) against Staphylococcus aureus ([2]; ATCC 29213, 1 h) [µg/mL] | other results |
| --- | --- | --- | --- | --- | --- | --- | --- |
| KSMMQSGGTFGTFMAIGMGIR [KU-5878-T59S] | > 300 | > 300 | > 300 | > 300 |  |  |  |
| KTMMQSGGTFGT-MAIGMGIR [Peptide 5878-d70F] | 200 | 200 | 200 | 200 |  |  |  |
| KTMMQSGGTFGTWMAIGMGIR [KU-5878-F70W] | 300 | 300 | > 300 | 300 | 300 | 300 |  |
| KTMMQSGGTFGTFMAIGMGIRRRR [Peptide 5878-3R] | 8 | 8 | 10 | 8 |  |  |  |
| KTMMQSGGTFGTFMAIGMGIRC [KU-5879] |  |  |  |  | 150 |  |  |
| KTMMQSGGTFGTFMAI-MGIR [Peptide 5878-d74G] | 20 | 25 | 25 | 30 |  |  |  |
| KTMMQS-GTFGTF-AIGM-IR [5878-d64G, d71M, d76G] | 200 | 200 | 200 | 200 |  |  |  |
| KTMMQSGGTFGTFMAIGMG-R [Peptide 5878-d77I] | > 300 | > 300 | > 300 | > 300 |  |  |  |
| KT-MQSGGTFGTFMAIGMGIR [Peptide 5878-d60M] | 90 | 90 | 100 | 90 |  |  |  |
| KTMMQSGGTFGTFMAIGM-IR [Peptide 5878-d76G] | 80 | 70 | 90 | 90 |  |  |  |
| KTMMQSGGTFGTF-AIGMGIR [Peptide 5878-d71M] | 250 | 250 | 300 | 300 |  |  |  |
| KTMMQSGGTFGTFMAIG-GIR [Peptide 5878-d75M] | 100 | 100 | 110 | 100 |  |  |  |
| KT-MQS-GTFGTFMAIGMGIR [5878-d60M, d64G] | 100 | 100 | 110 | 100 |  |  |  |
| KTMMQSGGRFGTFMAIGMGIR [KU-5878-T66R] | 80 | 90 | 90 | 80 |  |  |  |
| KTMMRSGGTFGTFMAIGMGIR [KU-5878-Q62R] | 80 | 80 | 90 | 80 |  |  |  |
| KTMMQSGGTFGTFMAIGM [KU-5875] |  |  |  |  | >300 | >300 |  |
| KTMMQSGGTFGTFMAIGMGI [KU-5877] |  |  |  |  | >300 | >300 |  |
| GGIGKTMMQSGGTFGTFMAIGMGIRC [KU-5479] |  |  |  |  |  | 200 |  |
| GKTMMQSGGTFGTFMAIGMGIRC [KU-5779] |  |  |  |  | 280 | 250 |  |
| GKTMMQSGGTFGTFMAIGMGIR [KU-5778] |  |  |  |  | 300 | 280 |  |
| KTMMQSGGTFGTFMAIGMG [KU-5876] |  |  |  |  | >300 | >300 |  |
| CLRIGMRGRELMGGIGKTM [pCM19, reference compound] |  |  |  |  | 300 | 250 |  |
| KTMMQSGGTFGTFMAIGMGIR-NH2 [KU-5878-NH2] |  |  |  |  | 60 | 70 |  |
| CC[C@@H](C)[C@@H](NC(=O)CNC(=O)[C@@H](CCSC)NC(=O)CNC(=O)[C@H](NC(=O)[C@@H](C)NC(=O)[C@@H](CCSC)NC(=O)[C@@H](Cc1ccccc1)NC(=O)[C@H](NC(=O)CNC(=O)[C@@H](Cc1ccccc1)NC(=O)[C@H](NC(=O)CNC(=O)CNC(=O)[C@@H](CO)NC(=O)[C@@H](CCC(N)=O)NC(=O)[C@@H](CCSC)NC(=O)[C@@H](CCSC)NC(=O)[C@H](NC(=O)[C@H](N)CCCCN)[C@H](C)O)[C@H](C)O)[C@H](C)O)[C@H](C)CC)C(=O)N[C@H](CCCNC(=N)N)C(=O)O [KU-5878-D(all)] (H-[dK][dT][dM][dM][dQ][dS]GG[dT][dF]G[dT][dF][dM][dA][dI]G[dM]G[dI][dR]-OH; N-terminus and C-terminus assumed) |  |  |  |  |  |  | MBC (μg/ml) value against Pseudomonas aeruginosa ([1]; ATCC 27853, 1 h): 300 µg/mL (≈ 135 µM); MBC (μg/ml) value against Staphylococcus aureus ([2]; ATCC 29213, 1 h): 300 µg/mL (≈ 135 µM) |
| B1 |  |  |  |  |  |  | MBC value (μg/ml) against Pseudomonas aeruginosa ([1]; ATCC 27853, 1 hour reaction at 37° C.): Insoluble; MBC value (μg/ml) against Staphylococcus aureus ([2]; ATCC 29213, 1 hour reaction at 37° C.): Insoluble |
